# Test results from patent US20240349726A1, “SUBSTITUTED 1,2,4-THIADIAZOLYL NICOTINAMIDES, SALTS OR N-OXIDES THEREOF AND THEIR USE AS HERBICIDALLY ACTIVE SUBSTANCES” (Bayer Aktiengesellschaft, priority 2021, published 2024).
# Tests used:
# Format in all cases: in vivo
# [1] = test system: Kochia scoparia; assay: Herbicidal pre-emergence action, KCHSC; conditions: visual grading after ca. 3 weeks vs untreated controls
# Excerpt: (§1) Seeds of mono- and dicotyledonous weed plants were sown in plastic pots (double sowings with one species of mono- and one species of dicotyledonous weed plants per pot), in sandy loam, and covered with soil. The compounds according to the invention, formulated in the form of wettable powders (WP) or as emulsifiable concentrates (EC), were applied to the surface of the covering soil as an aqueous suspension or as an emulsion, with the addition of 0.5% of an additive, at an application rate of 600 litres of water per hectare (converted). Following treatment, the pots were placed in a greenhouse and kept under optimum growth conditions for the test plants. The visual grading of the damage to the test plants is carried out after ca. 3 weeks in comparison to untreated controls (herbicidal effect in percent (%): 100% effect=plants have died, 0% effect=as control plants). Seeds of mono- and dicotyledonous weed plants were sown in plastic pots (double sowings with one species of mono- and one species of dicotyledonous weed plants per pot), in sandy loam, and covered with soil. The compounds according to the invention, formulated in the form of wettable powders (WP) or as emulsifiable concentrates (EC), were applied to the surface of the covering soil as an aqueous suspension or as an emulsion, with the addition of 0.5% of an additive, at an application rate of 600 litres of water per hectare (converted). Following treatment, the pots were placed in a greenhouse and kept under optimum growth conditions for the test plants. The visual grading of the damage to the test plants is carried out after ca. 3 weeks in comparison to untreated controls (herbicidal effect in percent (%): 100% effect=plants have died, 0% effect=as control plants).
# [2] = test system: Kochia scoparia; assay: Herbicidal post-emergence action, KCHSC; conditions: assessed visually after ca. 3 weeks vs untreated controls
# Excerpt: (§2) Seeds of mono- and dicotyledonous weed plants were sown in plastic pots (double sowings with one species of mono- and one species of dicotyledonous weed plants per pot), in sandy loam, covered with soil and grown under controlled growth conditions. 2 to 3 weeks after sowing, the test plants were sprayed in the single-leaf stage. The compounds according to the invention, formulated in the form of wettable powders (WP) or as emulsifiable concentrates (EC), were sprayed onto the green plant parts as an aqueous suspension or as an emulsion, with the addition of 0.5% of an additive, at an application rate of 600 litres of water per hectare (converted). The test plants were placed in the greenhouse for ca. 3 weeks under optimum growth conditions, and then the effect of the preparations is assessed visually in comparison with untreated controls (herbicidal effect in percent (%): 100% effect=plants have died, 0% effect=as control plants). […]
# [3] = test system: Matricaria inodora; assay: Herbicidal post-emergence action, MATIN; conditions: assessed visually after ca. 3 weeks vs untreated controls
# Excerpt: as §2
# [4] = test system: Setaria viridis; assay: Herbicidal post-emergence action, SETVI; conditions: 1280 g/ha, assessed visually after ca. 3 weeks vs untreated controls
# Excerpt: Seeds of mono- and dicotyledonous weed plants were sown in plastic pots (double sowings with one species of mono- and one species of dicotyledonous weed plants per pot), in sandy loam, covered with soil and grown under controlled growth conditions. 2 to 3 weeks after sowing, the test plants were sprayed in the single-leaf stage. The compounds according to the invention, formulated in the form of wettable powders (WP) or as emulsifiable concentrates (EC), were sprayed onto the green plant parts as an aqueous suspension or as an emulsion, with the addition of 0.5% of an additive, at an application rate of 600 litres of water per hectare (converted). The test plants were placed in the greenhouse for ca. 3 weeks under optimum growth conditions, and then the effect of the preparations is assessed visually in comparison with untreated controls (herbicidal effect in percent (%): 100% effect=plants have died, 0% effect=as control plants).
# [5] = test system: Stellaria media; assay: Herbicidal post-emergence action, STEME; conditions: assessed visually after ca. 3 weeks vs untreated controls
# Excerpt: as §2
# [6] = test system: Veronica persica; assay: Herbicidal post-emergence action, VERPE; conditions: assessed visually after ca. 3 weeks vs untreated controls
# Excerpt: as §2
# [7] = test system: Amaranthus retroflexus; assay: Herbicidal post-emergence action, AMARE; conditions: assessed visually after ca. 3 weeks vs untreated controls
# Excerpt: as §2
# [8] = test system: Stellaria media; assay: Herbicidal pre-emergence action, STEME; conditions: visual grading after ca. 3 weeks vs untreated controls
# Excerpt: as §1
# [9] = test system: Amaranthus retroflexus; assay: Herbicidal pre-emergence action, AMARE; conditions: visual grading after ca. 3 weeks vs untreated controls
# Excerpt: as §1
# [10] = test system: Alopecurus myosuroides; assay: Herbicidal post-emergence action, ALOMY; conditions: assessed visually after ca. 3 weeks vs untreated controls
# Excerpt: as §2
# [11] = test system: Lolium rigidum; assay: Herbicidal pre-emergence action, LOLRI; conditions: visual grading after ca. 3 weeks vs untreated controls
# Excerpt: as §1
# [12] = test system: Matricaria inodora; assay: Herbicidal pre-emergence action, MATIN; conditions: visual grading after ca. 3 weeks vs untreated controls
# Excerpt: as §1
# [13] = test system: Veronica persica; assay: Herbicidal pre-emergence action, VERPE; conditions: visual grading after ca. 3 weeks vs untreated controls
# Excerpt: as §1
# [14] = test system: Poa annua; assay: Herbicidal pre-emergence action, POAAN; conditions: visual grading after ca. 3 weeks vs untreated controls
# Excerpt: as §1
# [15] = test system: Abutilon theophrasti; assay: Herbicidal post-emergence action, ABUTH; conditions: assessed visually after ca. 3 weeks vs untreated controls
# Excerpt: as §2
# [16] = test system: Lolium rigidum; assay: Herbicidal post-emergence action, LOLRI; conditions: assessed visually after ca. 3 weeks vs untreated controls
# Excerpt: as §2
# [17] = test system: Poa annua; assay: Herbicidal post-emergence action, POAAN; conditions: assessed visually after ca. 3 weeks vs untreated controls
# Excerpt: as §2
# [18] = test system: Setaria viridis; assay: Herbicidal pre-emergence action, SETVI; conditions: 1280 g/ha, visual grading after ca. 3 weeks vs untreated controls
# Excerpt: (§3) Seeds of mono- and dicotyledonous weed plants were sown in plastic pots (double sowings with one species of mono- and one species of dicotyledonous weed plants per pot), in sandy loam, and covered with soil. The compounds according to the invention, formulated in the form of wettable powders (WP) or as emulsifiable concentrates (EC), were applied to the surface of the covering soil as an aqueous suspension or as an emulsion, with the addition of 0.5% of an additive, at an application rate of 600 litres of water per hectare (converted). Following treatment, the pots were placed in a greenhouse and kept under optimum growth conditions for the test plants. The visual grading of the damage to the test plants is carried out after ca. 3 weeks in comparison to untreated controls (herbicidal effect in percent (%): 100% effect=plants have died, 0% effect=as control plants).
# [19] = test system: Alopecurus myosuroides; assay: Herbicidal pre-emergence action, ALOMY; conditions: 1280 g/ha, visual grading after ca. 3 weeks vs untreated controls
# Excerpt: as §3
# [20] = test system: Echinochloa crus-galli; assay: Herbicidal pre-emergence action, ECHCG; conditions: 1280 g/ha, visual grading after ca. 3 weeks vs untreated controls
# Excerpt: as §3
SMILES,herbicidal effect KCHSC ([1]; 1280 g/ha) [%],herbicidal effect KCHSC ([2]; 1280 g/ha) [%],herbicidal effect MATIN ([3]; 320 g/ha) [%],herbicidal effect MATIN ([3]; 1280 g/ha) [%],herbicidal effect SETVI [4] [%],herbicidal effect STEME ([5]; 320 g/ha) [%],herbicidal effect STEME ([5]; 1280 g/ha) [%],herbicidal effect VERPE ([6]; 320 g/ha) [%],herbicidal effect VERPE ([6]; 1280 g/ha) [%],herbicidal effect AMARE ([7]; 1280 g/ha) [%],herbicidal effect STEME ([8]; 1280 g/ha) [%],herbicidal effect AMARE ([9]; 1280 g/ha) [%],herbicidal effect ALOMY ([10]; 1280 g/ha) [%],herbicidal effect LOLRI ([11]; 1280 g/ha) [%],herbicidal effect MATIN ([12]; 1280 g/ha) [%],herbicidal effect STEME ([8]; 320 g/ha) [%],herbicidal effect POAAN ([14]; 1280 g/ha) [%],herbicidal effect ABUTH ([15]; 1280 g/ha) [%],herbicidal effect LOLRI ([16]; 1280 g/ha) [%],herbicidal effect POAAN ([17]; 1280 g/ha) [%],also measured
O=C(Nc1nc(Cl)ns1)c1cnccc1C(F)(F)F [Example I-015],90,90,90,100,90,100,100,90,90,100,,,,,,,,,,,
Cc1nsc(NC(=O)c2c(C(F)(F)F)ccnc2F)n1 [Example I-008],,,,,,90,100,,90,100,90,90,90,,,,,,,,
O=C(Nc1ncns1)c1c(C(F)(F)F)ccnc1F [Example I-002],90,100,90,100,90,100,100,100,100,100,100,90,100,100,100,100,100,90,100,100,herbicidal effect LOLRI ([11]; 320 g/ha): 100%; herbicidal effect MATIN ([12]; 320 g/ha): 90%; herbicidal effect VERPE ([13]; 320 g/ha): 90%; herbicidal effect VERPE ([13]; 1280 g/ha): 100%; herbicidal effect POAAN ([14]; 320 g/ha): 100%; herbicidal effect ALOMY ([10]; 320 g/ha): 100%; herbicidal effect KCHSC ([2]; 320 g/ha): 100%; herbicidal effect LOLRI ([16]; 320 g/ha): 90%; herbicidal effect POAAN ([17]; 320 g/ha): 100%
O=C(Nc1ncns1)c1cnccc1C(F)(F)F [Example I-001],,,90,100,,100,100,,,90,100,100,,100,100,100,100,,90,100,herbicidal effect SETVI [18]: 90%; herbicidal effect POAAN ([14]; 320 g/ha): 100%; herbicidal effect AMARE ([9]; 320 g/ha): 100%; herbicidal effect POAAN ([17]; 320 g/ha): 100%
O=C(Nc1ncns1)c1c(C(F)(F)F)ccnc1Cl [Example I-021],,100,100,100,,90,100,100,100,100,100,100,,100,100,90,100,100,90,100,herbicidal effect LOLRI ([11]; 320 g/ha): 90%; herbicidal effect MATIN ([12]; 320 g/ha): 90%; herbicidal effect VERPE ([13]; 1280 g/ha): 90%; herbicidal effect POAAN ([14]; 320 g/ha): 90%; herbicidal effect ABUTH ([15]; 320 g/ha): 90%; herbicidal effect KCHSC ([2]; 320 g/ha): 90%; herbicidal effect AMARE ([7]; 320 g/ha): 100%
O=C(Nc1nc(C(F)(F)F)ns1)c1cnccc1C(F)(F)F [Example I-013],,100,100,100,,,100,100,100,100,,100,,,,,,100,,,herbicidal effect AMARE ([7]; 320 g/ha): 90%
"O=C(Nc1nc(Cl)ns1)c1c(C(F)(F)F)ccnc1F [Example I-009, N-(3-chloro-1,2,4-thiadiazol-5-yl)-2-fluoro-4-(trifluoromethyl)pyridine-3-carboxamide]",100,100,100,100,90,100,100,100,100,100,100,100,100,90,100,100,90,90,90,100,herbicidal effect ALOMY [19]: 100%; herbicidal effect ECHCG [20]: 90%; herbicidal effect KCHSC ([1]; 320 g/ha): 90%; herbicidal effect MATIN ([12]; 320 g/ha): 100%; herbicidal effect SETVI [18]: 90%; herbicidal effect VERPE ([13]; 1280 g/ha): 90%; herbicidal effect AMARE ([9]; 320 g/ha): 90%; herbicidal effect ALOMY ([10]; 320 g/ha): 90%; herbicidal effect KCHSC ([2]; 320 g/ha): 100%; herbicidal effect POAAN ([17]; 320 g/ha): 90%; herbicidal effect AMARE ([7]; 320 g/ha): 100%
